# Data from patent US11512268B2, “Storage-stable enzyme preparations, their production and use” (BASF SE, priority 2017, dated 2022).
# Experiments:
# Lipolase = biological target: T1, Lipolase (Thermomyces lanuginosus, UniProt O59952); assay: storage stability of lipase (Lipolase activity, pNitrophenol-valerate substrate) in liquid formulations at 37° C.; format: biochemical, Thermomyces lanuginosa; conditions: Lipolase 0.4 wt %, storage at 37° C.
# T1 construct: purchased Sigma-Aldrich
# T1 sequence (O59952 23-291): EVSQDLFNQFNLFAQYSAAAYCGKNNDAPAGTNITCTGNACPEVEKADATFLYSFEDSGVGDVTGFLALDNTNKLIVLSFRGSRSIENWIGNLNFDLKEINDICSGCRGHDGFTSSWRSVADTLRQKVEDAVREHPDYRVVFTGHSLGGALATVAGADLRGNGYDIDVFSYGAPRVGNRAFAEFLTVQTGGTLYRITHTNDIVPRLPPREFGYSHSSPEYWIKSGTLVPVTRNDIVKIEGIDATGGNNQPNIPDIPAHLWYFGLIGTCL
# Protocol: (§1) The storage stability of Lipase and Protease in water was assessed at 37° C.
# (§2) Base test formulations were manufactured by making base formulations I to VI by mixing the components according to Table 1.
# (§3) The respective salt (component (a)) or comparative compound was added, if applicable, to the respective base formulation in amounts as indicated in Table 1.
# (§4) The amount of enzyme as provided in Table 1 refers to active protein. Either lipase or protease was added, depending on which enzyme activity was measured.
# (§5) Lipolase® 100 L (CAS-No. 9001-62-1, EC-No. 232-619-9) was purchased from Sigma-Aldrich. Savinase® 16.0 L (CAS-No. 9014-01-1, EC-No. 232-752-2) was purchased from Sigma-Aldrich.
# Lipolase activity at certain points in time as indicated in Table 2 was be determined by employing pNitrophenol-valerate (2.4 mM pNP-C5 in 100 mM Tris pH 8.0, 0.01% Triton X100) as a substrate. The absorption was measured at 20° C. every 30 seconds over 5 minutes at 405 nm. The slope (absorbance increase at 405 nm per minute) of the time dependent absorption-curve is directly proportional to the activity of the lipase.
# The lipolytic activity values provided in Table 2 were calculated referring to the 100% value determined in the reference formulation at the time 0.
# (§6) The nomenclature of formulations is as follows: the Roman number before the full stop characterizes the base formulation, the Arabian number the type of salt (A.# inventive salt (component (a)); C-(A.#) comparative compound). Zero (“0”): no salt, but diethylene glycol.
# Savinase = biological target: T2, Savinase (Lederbergia lenta, UniProt P29600); assay: storage stability of protease (Savinase activity, Suc-AAPF-pNA substrate) in liquid formulations at 37° C.; format: biochemical; conditions: base formulation I., component (a) 2.5 wt %, Savinase 16.0 L 0.5 wt %, storage at 37° C.
# T2 construct: purchased Sigma-Aldrich
# T2 sequence (P29600 1-269): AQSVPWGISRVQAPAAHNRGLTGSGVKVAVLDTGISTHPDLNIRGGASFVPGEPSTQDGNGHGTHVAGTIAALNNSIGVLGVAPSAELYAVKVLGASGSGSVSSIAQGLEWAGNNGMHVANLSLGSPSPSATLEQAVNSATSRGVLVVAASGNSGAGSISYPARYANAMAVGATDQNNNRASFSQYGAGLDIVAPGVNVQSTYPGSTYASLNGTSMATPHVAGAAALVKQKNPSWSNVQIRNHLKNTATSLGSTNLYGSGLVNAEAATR
# Protocol: as §1, §2, §3, §4, §5
# Savinase activity at certain points in time as indicated in Table 3 was be determined by employing Succinyl-Ala-Ala-Pro-Phe-p-nitroanilide (Suc-AAPF-pNA, short AAPF) as substrate. pNA is cleaved from the substrate molecule by proteolytic cleavage, resulting in release of yellow color of free pNA which was determined by measuring OD405. Measurement were done at 20° C.
# The proteolytic activity values provided in Table 3 were calculated referring to the 100% value determined in the reference formulation at the time 0.
# as §6
smiles,measurement,setting,value
C[N+](C)(C)CCO.C[N+](C)(C)CCO.O=C([O-])C(O)C(O)C(=O)[O-] (stereo not drawn) [C-(A.16)],lipase activity,"Lipolase; base formulation I., component (a) 2.5 wt %, 1 d",90%
same,lipase activity,"Lipolase; base formulation I., component (a) 2.5 wt %, 3 d",81%
same,lipase activity,"Lipolase; base formulation I., component (a) 2.5 wt %, 6 d",68%
same,lipase activity,"Lipolase; base formulation I., component (a) 2.5 wt %, 10 d",51%
same,lipase activity,"Lipolase; base formulation I., component (a) 2.5 wt %, 15 d",40%
same,lipase activity,"Lipolase; base formulation I., component (a) 2.5 wt %, 20 d",34%
same,lipase activity,"Lipolase; base formulation I., component (a) 2.5 wt %, 25 d",25%
same,lipase activity,"Lipolase; base formulation I., component (a) 2.5 wt %, 30 d",24%
same,lipase activity,"Lipolase; base formulation I., component (a) 2.5 wt %, T0",95%
same,lipase activity,"Lipolase; base formulation IV., component (a) 4.0 wt %, 1 d",90%
same,lipase activity,"Lipolase; base formulation IV., component (a) 4.0 wt %, 3 d",81%
same,lipase activity,"Lipolase; base formulation IV., component (a) 4.0 wt %, 6 d",67%
same,lipase activity,"Lipolase; base formulation IV., component (a) 4.0 wt %, 10 d",55%
same,lipase activity,"Lipolase; base formulation IV., component (a) 4.0 wt %, 15 d",41%
same,lipase activity,"Lipolase; base formulation IV., component (a) 4.0 wt %, 20 d",34%
same,lipase activity,"Lipolase; base formulation IV., component (a) 4.0 wt %, 25 d",28%
same,lipase activity,"Lipolase; base formulation IV., component (a) 4.0 wt %, 30 d",25%
same,lipase activity,"Lipolase; base formulation IV., component (a) 4.0 wt %, T0",95%
same,lipase activity,"Lipolase; base formulation V., component (a) 4.0 wt %, 1 d",92%
same,lipase activity,"Lipolase; base formulation V., component (a) 4.0 wt %, 3 d",85%
same,lipase activity,"Lipolase; base formulation V., component (a) 4.0 wt %, 6 d",70%
same,lipase activity,"Lipolase; base formulation V., component (a) 4.0 wt %, 10 d",65%
same,lipase activity,"Lipolase; base formulation V., component (a) 4.0 wt %, 15 d",58%
same,lipase activity,"Lipolase; base formulation V., component (a) 4.0 wt %, 20 d",49%
same,lipase activity,"Lipolase; base formulation V., component (a) 4.0 wt %, 25 d",37%
same,lipase activity,"Lipolase; base formulation V., component (a) 4.0 wt %, 30 d",28%
same,lipase activity,"Lipolase; base formulation V., component (a) 4.0 wt %, T0",96%
same,protease activity,Savinase; 1 d,91%
same,protease activity,Savinase; 3 d,84%
same,protease activity,Savinase; 6 d,66%
same,protease activity,Savinase; 10 d,49%
same,protease activity,Savinase; 15 d,38%
same,protease activity,Savinase; 20 d,30%
same,protease activity,Savinase; 25 d,23%
same,protease activity,Savinase; 30 d,10%
same,protease activity,Savinase; T0,98%
